# Source: paper PMC11968506, “Toxicokinetics and analytical toxicology of the phenmetrazine-derived new psychoactive substance 3,4-methylenedioxyphenmetrazine studied by means of in vitro systems” (Archives of Toxicology, 2025)
# Key:
# CYP2D6 = CYP2D6 (Homo sapiens, UniProt P10635); experiment: CYP inhibition cocktail assay in pHLM, CYP2D6 (dextromethorphan)
# Method: A modified dual-cocktail based method (Dinger et al. [2014b]) was used. Substrate cocktail A consisted of 8.9 µM dextromethorphan (CYP2D6), 86 µM testosterone (CYP3A4), 3.5 µM diclofenac (CYP2C9), and 12 µM phenacetin (CYP1A2). Substrate cocktail B included 30 µM bupropion (CYP2B6), 2 µM amodiaquine (CYP2C8) and 21 µM omeprazole (CYP2C19). Substrate concentrations were near their respective Michaelis–Menten constant (Km) values (Dinger et al. [2014a]) and all concentrations are final. Enzyme inhibition was investigated using a positive control, a test group, a control group, an interference group, and a negative control. In the test group, specific inhibitors were replaced by MDPM (20 µM). Instead of inhibitors, phosphate buffer was used in the control group. Enzymes were replaced with phosphate buffer in the negative control group. The interference group was incubated like the control group, but the reaction was stopped with 20 µM MDPM in acetonitrile, also containing 2.5 µM trimipramine-d3. All groups were incubated with a NADPH-regenerating system, consisting of 5 mM isocitrate, 2 U/mL isocitrate dehydrogenase, 5 mM Mg^2+, and 1.2 mM NADP^+. Further, substrate cocktail A or B, 90 mM phosphate buffer (pH 7.4), and 200 U/mL superoxide dismutase were added to each group. […] All groups were preincubated for 10 min at 37 °C. Then, pHLM (0.4 mg microsomal protein/mL) was added to each group except the negative control. Incubations were done for 15 min at 37 °C. Therefore, 50 µL of acetonitrile (− 20 °C) containing 2.5 µM trimipramine-d3 as internal standard was added. Incubations were done in triplicates and organic solvent in the incubation mixture was below 1% (Chauret et al. [1998]). Afterwards the samples were vortexed and centrifuged for 2 min at 18,407×g. 70 µL of the supernatant were transferred to autosampler vials and 10 µL were injected onto the LC-HRMS/MS system. Enzyme inhibition was evaluated by metabolite formation. […] The following settings were used: unpaired; one-tailed; significance level, 0.05; confidence intervals, 99%.
# [1] = In vitro half-life by substrate depletion in pHLS9; type: in vitro ADME; conditions: human, pooled human liver S9 fraction (pHLS9), pHLS9, 25 µM substrate, sampling 0-180 min, read-out: in vitro half-life (t1/2)
# Method: Incubations with pHLS9 were performed in accordance with previous publications and minor adjustments (Richter et al. [2017]). First, 25 μg/mL alamethicin (UGT reaction mix B), pHLS9 (2 mg microsomal protein/mL), 0.1 mM AcCoA, 2.3 mM acetylcarnitine, 8 U/mL carnitine acetyltransferase, 2.5 mM isocitrate, 0.8 U/mL isocitrate dehydrogenase, 100 U/mL superoxide dismutase, 0.6 mM NADP^+ and 2.5 mM Mg^2+ were preincubated for 10 min at 37 °C. Then, 2.5 mM UDP-glucuronic acid (UGT reaction mix A), 40 µM PAPS, 1.2 mM SAM, 1 mM DTT and 10 mM GSH were added. The reaction was started by adding the respective substrate MDPM, MDMA, or quetiapine (25 µM each). MDMA and quetiapine were incubated as positive controls. Negative control samples without enzymes and blank samples without substrates were incubated to identify not metabolically formed compounds and to confirm the absence of interfering compounds. […] Aliquots (50 µL) were transferred to a new reaction tube after 60 and 360 min. […] Samples were vortexed, stored at − 20 °C for 30 min, and centrifuged for 2 min at 18,407×g.
# Incubations to investigate in vitro half-life were performed under the same incubation conditions as described above and done in duplicate. […] A t-test was performed to compare absolute peak areas of the incubation group and the control group at 0 min. […]
# In vitro half-life was determined by measuring substrate depletion. […]
# CYP3A4 = CYP3A4 (Homo sapiens, UniProt P08684); experiment: CYP inhibition cocktail assay in pHLM, CYP3A4 (testosterone)
# CYP3A4, sequence (P08684 whole entry): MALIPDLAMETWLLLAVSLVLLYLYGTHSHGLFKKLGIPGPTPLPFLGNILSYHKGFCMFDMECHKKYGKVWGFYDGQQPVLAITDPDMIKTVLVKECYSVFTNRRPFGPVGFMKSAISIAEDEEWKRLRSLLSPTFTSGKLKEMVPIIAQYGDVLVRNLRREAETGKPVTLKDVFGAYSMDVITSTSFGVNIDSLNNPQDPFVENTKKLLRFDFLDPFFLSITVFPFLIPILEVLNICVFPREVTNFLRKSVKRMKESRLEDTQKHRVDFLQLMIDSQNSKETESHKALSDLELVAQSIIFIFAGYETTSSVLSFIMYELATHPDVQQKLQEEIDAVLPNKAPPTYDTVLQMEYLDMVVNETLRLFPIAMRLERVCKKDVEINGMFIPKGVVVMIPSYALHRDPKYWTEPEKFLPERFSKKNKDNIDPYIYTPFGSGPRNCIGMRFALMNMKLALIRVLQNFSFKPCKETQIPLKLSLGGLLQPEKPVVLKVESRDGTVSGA
# Method: A modified dual-cocktail based method (Dinger et al. [2014b]) was used. Substrate cocktail A consisted of 8.9 µM dextromethorphan (CYP2D6), 86 µM testosterone (CYP3A4), 3.5 µM diclofenac (CYP2C9), and 12 µM phenacetin (CYP1A2). Substrate cocktail B included 30 µM bupropion (CYP2B6), 2 µM amodiaquine (CYP2C8) and 21 µM omeprazole (CYP2C19). Substrate concentrations were near their respective Michaelis–Menten constant (Km) values (Dinger et al. [2014a]) and all concentrations are final. Enzyme inhibition was investigated using a positive control, a test group, a control group, an interference group, and a negative control. In the test group, specific inhibitors were replaced by MDPM (20 µM). Instead of inhibitors, phosphate buffer was used in the control group. Enzymes were replaced with phosphate buffer in the negative control group. The interference group was incubated like the control group, but the reaction was stopped with 20 µM MDPM in acetonitrile, also containing 2.5 µM trimipramine-d3. All groups were incubated with a NADPH-regenerating system, consisting of 5 mM isocitrate, 2 U/mL isocitrate dehydrogenase, 5 mM Mg^2+, and 1.2 mM NADP^+. Further, substrate cocktail A or B, 90 mM phosphate buffer (pH 7.4), and 200 U/mL superoxide dismutase were added to each group. […] All groups were preincubated for 10 min at 37 °C. […] Enzyme inhibition was evaluated by metabolite formation. […]
# CYP2D6, sequence (P10635 whole entry): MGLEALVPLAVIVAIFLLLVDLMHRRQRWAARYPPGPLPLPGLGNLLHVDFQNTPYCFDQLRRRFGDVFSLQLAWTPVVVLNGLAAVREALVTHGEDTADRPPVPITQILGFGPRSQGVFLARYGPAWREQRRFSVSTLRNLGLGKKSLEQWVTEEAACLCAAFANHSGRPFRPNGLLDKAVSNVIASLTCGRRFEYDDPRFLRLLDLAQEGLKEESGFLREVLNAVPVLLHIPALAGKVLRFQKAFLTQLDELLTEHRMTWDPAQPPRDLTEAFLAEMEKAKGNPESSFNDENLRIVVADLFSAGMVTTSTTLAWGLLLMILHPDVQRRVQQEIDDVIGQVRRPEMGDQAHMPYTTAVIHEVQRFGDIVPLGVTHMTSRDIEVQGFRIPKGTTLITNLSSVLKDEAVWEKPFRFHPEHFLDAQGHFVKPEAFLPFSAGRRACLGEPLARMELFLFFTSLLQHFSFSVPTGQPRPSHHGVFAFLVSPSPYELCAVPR
compound,measurement,setting,value
"CC1NCCOC1c1ccc2c(c1)OCO2 (centres unmarked) [MDPM, 2-(1,3-benzodioxol-5-yl)-3-methylmorpholine]","inhibition at 15 min, 20 µM","CYP2D6; human, pH 7.4",77%
same,CYP2D6 metabolite formation,"CYP2D6; inhibitor 20 µM, dextromethorphan 8.9 µM, pHLM 0.4 mg/mL, 15 min, control without inhibitor = 100%",23%
same,half-life at 25 µM,[1],> 3 h
same,"inhibition at 15 min, 20 µM","CYP3A4; human, pH 7.4",28%
same,CYP3A4 metabolite formation,"CYP3A4; inhibitor 20 µM, testosterone 86 µM, pHLM 0.4 mg/mL, 15 min, control without inhibitor = 100%",72%
